The values below are quoted from earlier work in US11512068B2, “Process for the preparation of crystalline ridinilazole using acid addition salts” (Sandoz AG, priority 2017, dated 2022).

Data set [1] relates to Clostridium difficile.
The conditions of data set [2]: phase 1 trial, oral.
The next data set concerns clostridia. The following applies: phase 1 trial, oral.
For data set [3], the system named is Clostridium difficile. The following applies: treatment with ridinilazole.

Each structure is given as a SMILES string.

For `c1cc(-c2nc3ccc(-c4ccc5nc(-c6ccncc6)[nH]c5c4)cc3[nH]2)ccn1` [Ridinilazole, 5,5′bis[2-(4-pyridinyl)-1H-benzimidazole]], the post-antibiotic effect result in the data set with Clostridium difficile [1] was “prolonged post-antibiotic effect”. In data set [2], the tolerability result was “well tolerated”. In addition, the “selectivity for clostridia over other faecal bacteria” value with clostridia is “specifically targets clostridia whilst sparing other faecal bacteria”. Also, in the data set on Clostridium difficile [3], the toxin production entry is on record as “decreased toxin production”.
